Results published in patent US11649222B2, “Compounds” (UNIVERSITETET I OSLO, priority 2016, dated 2023).
Where “and” joins values, the source holds several entries; their conditions need not be identical. Identical values can stand only once.

Legend:
[1] = test system: Klebsiella pneumoniae strain 50752501 harbouring NDM-1; assay: In vivo peritonitis infection study in neutropenic mice; parameters: Score at sampling: scale not given here
Experimental: The purpose of this study was to investigate the synergy between a typical example of the present invention and a state of art carbapenem in a clinically relevant multiresistant Gram-negative bacterial strain harboring a metallo-β-lactamase in the treatment of live mice infected with the bacterial strain.
The mice were rendered neutropenic by injecting 0.5 ml cyclophosphamide solution intraperitoneally 4 days (approximately 200 mg/kg) and 1 day (approximately 100 mg/kg) prior to inoculation.
Fresh overnight colonies from a 5% Horse Blood Agar plate were suspended and diluted in sterile saline to approximately and 10^7 CFU/ml. Mice were inoculated intraperitoneally with 0.5 ml of the suspension. Approximately ½ hr prior to inoculation, mice were treated orally with 45 μl neurophen (20 mg ibuprofen/ml corresponding to approximately 30 mg/kg) as a pain relief.
Mice were treated subcutaneously in the neck region with.
Colony counts were determined from blood and peritoneal fluid at 1 and 5 hrs post inoculation. […] The mice were sacrificed immediately after blood sampling and a total of 2 ml sterile saline was injected i.p. and the abdomen gently massaged before it was opened and fluid sampled with a pipette. Each sample was then 10 fold serial diluted in saline and 20-μl spots, ranging from undiluted to a 10^6 dilution, were applied on agar plates in duplicates. […] All agar plates were incubated 18-22 hrs at 35° C. in ambient air.

E. coli (VIM-1) = assay: Microbroth dilution MIC of meropenem ± 25 mg/L inhibitor; format: cell-based; settings: Escherichia coli, read-out: MIC meropenem alone
Experimental: (§1) • Plate bacterial strain(s) on appropriate media: • Gram-negative bacteria with ESBLs or carbapenemases: green agar plates with 100 mg/L ampicillin • Gram-negative bacteria without β-lactamases: green agar plates • Gram-positive bacteria (Staphylococci and Enterococci): blood agar plates • Incubate o.n. at 37° C. Day 2: Prepare the Bacterial Inoculum: • Prepare a 0.5 McFarland suspension of bacteria in 0.85% NaCl. (Should be used within 15 min of preparation). • Dilute the 0.5 McFarland suspension 1:100 into MH broth. Check the inoculum by diluting the prepared bacterial suspension 1:100 (10 μl bacterial suspension+990 μl 0.85% NaCl). Plate 10 μl of the dilution on MH agar plates (×2). Incubate o.n. at 37° C., count the colonies and calculate the final CFU/ml inoculum in the plate by multiplying the average number of colonies with 10000 and divide by 2. The final inoculum should be between 3-7×10^5 CFU/ml. • Add 50 μl of the prepared bacterial suspension to each well in the microtiter plate except negative growth control. Preparation of Compounds/Antibiotics • Calculate the desired concentration-range and volume of the compounds/antibiotics in the assay. […] Dilute the stock solution in MH broth. Make subsequent 2-fold dilutions in MH broth of the desired concentrations if a concentration range is to be tested (remember the extra dilution factor in the assay plate). Always include extra volume for pipetting. Take into consideration stock solutions that are made in buffers that have an effect on bacterial growth (e.g. DMSO).

[2] = test system: M. morganii (OXA48+ NDM-1); assay: as above; format: cell-based; settings: Morganella morganii, read-out: MIC meropenem alone
Experimental: as §1

K. pneumoniae (NDM-1) = assay: as above; format: cell-based
Experimental: as §1

K. pneumoniae (VIM) = assay: as above; format: cell-based; settings: Klebsiella pneumoniae, read-out: MIC meropenem alone
Experimental: as §1

P. stuartii (NDM) = assay: as above; format: cell-based; settings: Providencia stuartii, read-out: MIC meropenem alone
Experimental: as §1

C. freundii (NDM-1) = assay: as above; format: cell-based; settings: Citrobacter freundii, read-out: MIC meropenem alone
Experimental: as §1

E. cloacae (VIM) = assay: as above; format: cell-based; settings: Enterobacter cloacae, read-out: MIC meropenem alone
Experimental: as §1

P. stuartii (NDM-1) = assay: as above; format: cell-based; settings: Providencia stuartii, read-out: MIC meropenem alone
Experimental: as §1

P. mirabilis (NDM-1) = assay: as above; format: cell-based; settings: Proteus mirabilis, read-out: MIC meropenem alone
Experimental: as §1

K. pneumoniae (NDM-7) = assay: as above; format: cell-based; settings: Klebsiella pneumoniae, read-out: MIC meropenem alone
Experimental: as §1

C. freundii (NDM) = assay: as above; format: cell-based; settings: Citrobacter freundii, read-out: MIC meropenem alone
Experimental: as §1

[3] = test system: K. pneumonia K45-67 (VIM-1); assay: Checkerboard MIC, Example 26 and meropenem; format: cell-based
Experimental: (§2) A checkerboard MIC assay was using the broth dilution method according to CLSI guidelines. […] Dilutions to 4 mg/ml was performed by adding+4.75 ml sterile saline to 0.25 ml of the stock solution, and dilutions to 512 μg/ml was performed by adding 10.9 ml MH-broth to the 4 mg/ml solution. Inoculums of bacterial strains as described in Table 4 were prepared by suspending fresh overnight colonies from 5% horse blood agar were to a turbidity of 0.5 McFarland and further diluted to 1×10^6 CFU/ml in MH-broth. Aliquots of 50 μl of MH-broth were added to each well of polystyrene microtiter plates. […] The plates were incubated at 35° C., 16-20 hours.

[4] = test system: K. pneumonia 50752501 (NDM-1); assay: Checkerboard MIC, Example 26 and meropenem; format: cell-based
Experimental: as §2

E. coli 50739822 (NDM-1) = assay: Checkerboard MIC, Example 26 and meropenem; format: cell-based
Experimental: as §2

E. coli AMA323 (VIM-4) = assay: Checkerboard MIC, Example 26 and meropenem; format: cell-based
Experimental: as §2

E. coli 50921466 (VIM-1) = assay: Checkerboard MIC, Example 26 and meropenem; format: cell-based
Experimental: as §2

[5] = test system: K. pneumonia 50825040 (NDM-1); assay: Checkerboard MIC, Example 26 and meropenem; format: cell-based
Experimental: as §2

[6] = vehicle + meropenem 33 mg/kg, sampling T = 5, individual mice
[7] = Klebsiella pneumoniae, read-out: MIC alone, Meropenem
[8] = Escherichia coli, read-out: MIC alone, Meropenem

C[C@@H](O)[C@H]1C(=O)N2C(C(=O)O)=C(S[C@@H]3CN[C@H](C(=O)N(C)C)C3)[C@H](C)[C@H]12 [meropenem, reference compound]
lower CFU levels compared to vehicle treatment, blood ([1]; meropenem alone): 2.5 log10 | lower CFU levels compared to vehicle treatment, peritoneal fluid ([1]; meropenem alone): 2.2 log10 | Pf log CFU/ml mean ([1]; peritoneal fluid, vehicle + meropenem 33 mg/kg, sampling T = 5): 5.22 log CFU/ml | Pf log CFU/ml ([1]; peritoneal fluid, vehicle + meropenem 33 mg/kg, sampling T = 5, individual mice): 5.72 log CFU/ml and 4.60 log CFU/ml and 5.30 log CFU/ml and 5.24 log CFU/ml | Blood log CFU/ml mean ([1]; vehicle + meropenem 33 mg/kg, sampling T = 5): 2.98 log CFU/ml | Blood log CFU/ml [1, 6]: 3.51 log CFU/ml (2×) and 2.80 log CFU/ml and 2.10 log CFU/ml | Score at sampling [1, 6]: 2 | MIC (E. coli (VIM-1)): 0.5 µg/mL | MIC [2]: 8 µg/mL | MIC meropenem alone (K. pneumoniae (NDM-1); K. pneumoniae NDM-1 (several strains)): 32 mg/L | MIC (K. pneumoniae (NDM-1); Klebsiella pneumoniae, read-out: MIC meropenem alone, K. pneumoniae NDM-1 (several strains)): 64 µg/mL | MIC (K. pneumoniae (VIM)): 4 µg/mL | MIC (P. stuartii (NDM)): 64 µg/mL | MIC (C. freundii (NDM-1)): 4 µg/mL | MIC (E. cloacae (VIM)): 8 µg/mL | MIC (P. stuartii (NDM-1)): 8 µg/mL | MIC (P. mirabilis (NDM-1)): 32 µg/mL | MIC (K. pneumoniae (NDM-7)): 64 µg/mL | MIC (C. freundii (NDM)): 16 µg/mL | MIC [3, 7]: 32 µg/mL | MIC in combination, Meropenem ([3]; with Example 26): ≤0.0625 mg/L | MIC [4, 7]: 64 µg/mL | MIC in combination, Meropenem ([4]; with Example 26): ≤0.0625 mg/L | MIC (E. coli 50739822 (NDM-1); [8]): 32 µg/mL | MIC in combination, Meropenem (E. coli 50739822 (NDM-1); with Example 26): ≤0.0625 mg/L | MIC (E. coli AMA323 (VIM-4); [8]): 8 µg/mL | MIC in combination, Meropenem (E. coli AMA323 (VIM-4); with Example 26): ≤0.0625 mg/L | MIC (E. coli 50921466 (VIM-1); [8]): 2 µg/mL | MIC in combination, Meropenem (E. coli 50921466 (VIM-1); with Example 26): ≤0.0625 mg/L | MIC [5, 7]: 64 µg/mL | MIC in combination, Meropenem ([5]; with Example 26): ≤0.0625 mg/L
